Test results published in PMC5856786, “A DHODH inhibitor increases p53 synthesis and enhances tumor cell killing by p53 degradation blockage” (Nature Communications, 2018).

How the values were obtained:
[1] = tested on: ARN8 cells; experiment: PI flow cytometry, sub-G1 cells, ARN8; type: cell-based, human; details: ARN8 72 h
Procedure: (§1) Cell cycle distribution analysis was performed on a Becton Dickinson FACScan flow cytometer or FACSCalibur (BD Biosciences) following staining with propidium iodide (PI) or dual labeling with BrdU and PI[36]. These assays were analyzed using CellQuest Pro (BD Biosciences).

[2] = tested on: HNDF cells; experiment: PI flow cytometry, sub-G1 cells, HNDF; type: cell-based, human; details: DMSO 72 h + 48 h, 2 μM nutlin-3a last 48 h
Procedure: as §1

[3] = tested on: U2OS cells; experiment: PI flow cytometry, sub-G1 cells, U2OS; type: cell-based; details: DMSO 72 h + 48 h, 2 μM nutlin-3a last 48 h
Procedure: as §1

[4] = tested on: MV411 cells; experiment: PI flow cytometry, sub-G1 cells, MV411; type: cell-based; details: DMSO 72 h + 48 h, 2 μM nutlin-3a last 48 h
Procedure: as §1

[5] = tested on: U2OS cells; experiment: Annexin V/PI apoptosis flow cytometry; type: cell-based; details: HZ05 72 h, washed, nutlin-3a 48 h
Procedure: Fig. 7 HZ05 increases p53 levels in S-phase cells. a U2OS cells were treated with DMSO (vehicle) or HZ05 (1 μM) for 72 h. The upper left panel is a representative dot plot showing the gating strategy for cells expressing high p53 levels (blue: HZ05 treated and red: DMSO treated). […] A representative histogram of the fluorescence intensity of FITC-p53 in S-phase cells is shown in the lower right panel. Bar graphs show the average of three independent experiments. Unpaired t-test was employed to assess statistical significance using GraphPad Prism version 7 (****p < 0.0001 and ***p < 0.001). b U2OS cells were pretreated with HZ05 for 72 h, washed with medium containing DMSO or nutlin-3a, and then provided with fresh medium containing DMSO or nutlin-3a. After an additional 48 h, Annexin V and PI staining was analyzed by flow cytometry. The average of two independent experiments ± SD is shown. c Hypothetical model describing the combination of DHODH inhibition with mdm2 antagonists. […] Inhibition of p53 degradation in the form of an mdm2 antagonist leads to death of cells in S-phase
For the detection of apoptotic cells, the Annexin V-FITC Apoptosis detection kit (Ab#14085) was used with analysis conducted using FlowJo software V10.2.

[6] = tested on: ARN8 xenograft; experiment: ARN8 subcutaneous xenograft; type: in vivo; details: ARN8 xenograft; (R)-HZ05 75 mg/kg q.d. s.c. or nutlin-3a 50 mg/kg b.i.d. orally
Procedure: All animal xenograft experiments were approved by the Norwegian Animal Research Authority and conducted according to The European Convention for the Protection of Vertebrates Used for Scientific Purposes. […] The health status and weight of the mice were monitored daily and they were randomized in a non-blinded manner into 4 groups when tumor volumes reached 30–40 mm^3. […] Tumor volumes were measured every second day by a digital caliper using the following ellipsoid formula: Volume = π (length × width × height)/6.
To determine the efficacy of (R)-HZ05 in combination with nutlin-3a, 4 groups of NSG mice (n = 8 per group) were subcutaneously injected in the flank region with a single 100 μL injection of 2 × 10^6 ARN8 cells in a solution of PBS:Matrigel (volume ratio 3:1). Treatment was initiated when tumors reached ~50 mm^3. The maximum tolerated dose for this combination of drugs was previously determined for the strain we used. The endpoint of the experiment was determined by the tumor size ([…]) weight loss, and general condition of the mice according to The Norwegian Animal Research Authority.

[7] = Pharmacokinetic study, nutlin-3a single or co-administered with (R)-HZ05; type: in vivo, NOD-SCID mice; details: mice; nutlin-3a 50 mg kg-1 oral + (R)-HZ05 75 mg kg-1 s.c.
Procedure: collected from the retro-orbital plexus of three mice per group per time point at the following times: pre-dose, 0.08, 0.25, 0.5, 1, 2, 4, 8, and 24 h. Samples were collected into tubes with 20 % potassium-EDTA solution. Plasma was separated at 4000 rpm for 10 minutes at 4 °C and stored at -70 °C until analysis. 25 µL of study sample or spiked plasma calibration standards were added to individual tubes followed by 100 µL of Glipizide at 500 ng mL-1 as an internal standard. Samples were centrifuged at 4000 rpm at 4 °C for 10 minutes. 100 µL of cleared supernatant was transferred to 96-well plates and analyzed using a Waters ACQUITY UPLC connected to an AB Sciex API 4000 QTRAP in MRM mode with positive electrospray ionization with an ion spray voltage of 5500 V. The mobile phase was A: 0.1 % formic acid in acetonitrile and B: 0.1 % formic acid in water through a phenomenex Kinetex EVO C18 (5 µm, 100 × 4.6 mm) kept at 45 °C. […]
Samples were centrifuged at 4000 rpm at 4 °C for 10 minutes. 100 µL of cleared supernatant was transferred to 96-well plates and analyzed using a Waters ACQUITY UPLC connected to an AB Sciex API 4000 QTRAP in MRM mode with positive electrospray ionization with an ion spray voltage of 5500 V. The mobile phase was A: 0.1 % formic acid in acetonitrile and B: 0.1 % formic acid in water through a phenomenex Kinetex EVO C18 (5 µm, 100 × 4.6 mm) kept at 45 °C. […]

In the case of `COc1ccc(C2=N[C@@H](c3ccc(Cl)cc3)[C@@H](c3ccc(Cl)cc3)N2C(=O)N2CCNC(=O)C2)c(OC(C)C)c1` [nutlin-3a, reference compound], the “DMSO control subtracted effect (cells in sub-G1)” value (shortened to “DMSO control subtracted effect”) ([1]; HZ05 0 nM + nutlin-3a 5 µM) is reported as 0.05, the “DMSO control subtracted effect” value ([1]; HZ05 0 nM + nutlin-3a 10 µM) is reported as 0.07 and the “DMSO control subtracted effect” value ([1]; HZ05 0 nM + nutlin-3a 15 µM) is reported as 0.12. For the same compound, the “DMSO control subtracted effect” value ([1]; HZ05 0 nM + nutlin-3a […]) was 0.10, the sub-G1 cells ([1]; nutlin-3a 1 μM) was 0.8% and the sub-G1 cells ([1]; nutlin-3a 2.5 μM) was 1.59%. For the same compound, the sub-G1 cells ([1]; nutlin-3a 5 μM) was 3.52%, the sub-G1 cells [2] was 1.2% and the sub-G1 cells [3] was 1.1%. For the same compound, the sub-G1 cells [4] was 37.2%, the “effect of nutlin-3a after HZ05 pre-treatment and wash-out” value [5] was “triggered cell death” and the “xenograft tumor growth, single agent” value [6] was “ineffective”. For the same compound, the “half-life on co-administration with (R)-HZ05” value [7] was “not prolonged”.
